US4208398A, “Technetium-labeled complexes, production and use thereof” (priority 1975, dated 1980)
Each block holds one compound with its values, some of them ahead of it.

What was measured:
[1] = water/octanol partition coefficient Ln(aw/ao) of the technetium complex; format: physicochemical; conditions: for Partition Coefficient = Ln(aw/ao): 27000 µM
Method: This ratio of distribution is quite easily followed by determining the activity of the respective phases of a two-phase system, in which the complex is added as a water solution to octanol in equal parts. […] (wherein aw is the radioactivity distributed in the aqueous phase and ao is the radioactivity distributed in the organic phase, at a pH in the range between pH 4 and pH 9), after thorough agitation to admix the phases followed by standing to accomplish complete separation.
The blood is on the mildly alkaline side at pH=7.4, while the urine, etc., is about pH 5 to pH 8.

[2] = biological distribution of the 99m-Tc complex in mice as a function of time; format: in vivo, white female Swiss Webster mice; conditions: for Percentage of total 99m-Tc in mice, Carcass / Percentage of total 99m-Tc in mice, Gut / Percentage of total 99m-Tc in mice, Kidneys / Percentage of total 99m-Tc in mice, Liver / Percentage of total 99m-Tc in mice, Lungs / Percentage of total 99m-Tc in mice, Pancreas / Percentage of total 99m-Tc in mice, Spleen / Percentage of total 99m-Tc in mice, Stomach / Percentage of total 99m-Tc in mice, Spleen & Pancreas / Percentage of total 99m-Tc in mice, Urine: i.v. tail vein
Method: The mice were injected intravenously via the tail vein, sacrificed after appropriate time periods, then dissected. The isolated organs were assayed for radioactivity using a Packard series 410 A Auto Gamma Spectrometer.
Each data point represents an average value from three mice taken in three separate distribution studies.
The mice were tested and assayed for radioactivity as described in Example 1.

[3] = kidney imaging in dogs with a gamma radiation detecting camera; format: in vivo; conditions: one-half hour after injection
Method: Next, 9 ml. of saline were added to the glass vial (held under N2 atmosphere). The pH of the vial contents was raised to pH 7.4, using 1 molar NaOH. The solution was transferred to a pharmaceutical vial, capped and sealed. Using a needle inserted through the rubber seal septum, the vial was evacuated to 5 mm. Hg pressure and purged with nitrogen to 1 atmospheric pressure. The vial contents were ready for injection and kidney imaging.

[4] = in vivo
[5] = localization of technetium activity in a mouse after injection of the complex into the blood stream; format: in vivo; conditions: one hour after injection into the blood stream
Method: One hour after this complex was injected into the blood stream of a mouse, about 24 percent of technetium activity had localized in its kidneys.

[6] = mouse kidney distribution of Tc-99m pertechnetate (comparison); format: in vivo; conditions: at any time during a 24 hour period

Compound: 99m-Tc-dimercaptosuccinic acid
Partition Coefficient = Ln(aw/ao) ([1]; pH 4): 6.0 | Partition Coefficient = Ln(aw/ao) ([1]; pH 5): 6.8 | Partition Coefficient = Ln(aw/ao) ([1]; pH 6): 7.6 | Partition Coefficient = Ln(aw/ao) ([1]; pH 7): 8.5 | Partition Coefficient = Ln(aw/ao) ([1]; pH 8): 8.2 | Partition Coefficient = Ln(aw/ao) ([1]; pH 9): 8.1 | Percentage of total 99m-Tc in mice, Carcass ([2]; 0 hr): 40.9 Percentage of total 99m-Tc | Percentage of total 99m-Tc in mice, Carcass ([2]; 0.5 hr): 30.4 Percentage of total 99m-Tc | Percentage of total 99m-Tc in mice, Carcass ([2]; 1.0 hr): 26.9 Percentage of total 99m-Tc | Percentage of total 99m-Tc in mice, Carcass ([2]; 2.0 hr): 20.4 Percentage of total 99m-Tc | Percentage of total 99m-Tc in mice, Carcass ([2]; 4.0 hr): 21.3 Percentage of total 99m-Tc | Percentage of total 99m-Tc in mice, Carcass ([2]; 24.0 hr): 8.0 Percentage of total 99m-Tc | Percentage of total 99m-Tc in mice, Gut ([2]; 0 hr): 10.1 Percentage of total 99m-Tc | Percentage of total 99m-Tc in mice, Gut ([2]; 0.5 hr): 6.1 Percentage of total 99m-Tc | Percentage of total 99m-Tc in mice, Gut ([2]; 1.0 hr): 7.0 Percentage of total 99m-Tc | Percentage of total 99m-Tc in mice, Gut ([2]; 2.0 hr): 4.3 Percentage of total 99m-Tc | Percentage of total 99m-Tc in mice, Gut ([2]; 4.0 hr): 3.0 Percentage of total 99m-Tc | Percentage of total 99m-Tc in mice, Gut ([2]; 24.0 hr): 1.7 Percentage of total 99m-Tc | Percentage of total 99m-Tc in mice, Kidneys ([2]; 0 hr): 9.4 Percentage of total 99m-Tc | Percentage of total 99m-Tc in mice, Kidneys ([2]; 0.5 hr): 29.3 Percentage of total 99m-Tc | Percentage of total 99m-Tc in mice, Kidneys ([2]; 1.0 hr): 39.5 Percentage of total 99m-Tc | Percentage of total 99m-Tc in mice, Kidneys ([2]; 2.0 hr): 45.6 Percentage of total 99m-Tc | Percentage of total 99m-Tc in mice, Kidneys ([2]; 4.0 hr): 54.8 Percentage of total 99m-Tc | Percentage of total 99m-Tc in mice, Kidneys ([2]; 24.0 hr): 75.5 Percentage of total 99m-Tc | Percentage of total 99m-Tc in mice, Liver ([2]; 0 hr): 28.6 Percentage of total 99m-Tc | Percentage of total 99m-Tc in mice, Liver ([2]; 0.5 hr): 12.8 Percentage of total 99m-Tc | Percentage of total 99m-Tc in mice, Liver ([2]; 1.0 hr): 9.4 Percentage of total 99m-Tc | Percentage of total 99m-Tc in mice, Liver ([2]; 2.0 hr): 6.8 Percentage of total 99m-Tc | Percentage of total 99m-Tc in mice, Liver ([2]; 4.0 hr): 3.8 Percentage of total 99m-Tc | Percentage of total 99m-Tc in mice, Liver ([2]; 24.0 hr): 2.7 Percentage of total 99m-Tc | Percentage of total 99m-Tc in mice, Lungs ([2]; 0 hr): 7.4 Percentage of total 99m-Tc | Percentage of total 99m-Tc in mice, Lungs ([2]; 0.5 hr): 2.3 Percentage of total 99m-Tc | Percentage of total 99m-Tc in mice, Lungs ([2]; 1.0 hr): 1.7 Percentage of total 99m-Tc | Percentage of total 99m-Tc in mice, Lungs ([2]; 2.0 hr): 0.8 Percentage of total 99m-Tc | Percentage of total 99m-Tc in mice, Lungs ([2]; 4.0 hr): 0.7 Percentage of total 99m-Tc | Percentage of total 99m-Tc in mice, Lungs ([2]; 24.0 hr): 0.0 Percentage of total 99m-Tc | Percentage of total 99m-Tc in mice, Pancreas ([2]; 0 hr): 1.4 Percentage of total 99m-Tc | Percentage of total 99m-Tc in mice, Pancreas ([2]; 0.5 hr): 0.7 Percentage of total 99m-Tc | Percentage of total 99m-Tc in mice, Pancreas ([2]; 1.0 hr): 0.4 Percentage of total 99m-Tc | Percentage of total 99m-Tc in mice, Pancreas ([2]; 2.0 hr): 0.3 Percentage of total 99m-Tc | Percentage of total 99m-Tc in mice, Pancreas ([2]; 4.0 hr): 0.2 Percentage of total 99m-Tc | Percentage of total 99m-Tc in mice, Pancreas ([2]; 24.0 hr): 0.2 Percentage of total 99m-Tc | Percentage of total 99m-Tc in mice, Spleen ([2]; 0 hr): 0.3 Percentage of total 99m-Tc | Percentage of total 99m-Tc in mice, Spleen ([2]; 0.5 hr): 0.4 Percentage of total 99m-Tc | Percentage of total 99m-Tc in mice, Spleen ([2]; 1.0 hr): 0.2 Percentage of total 99m-Tc | Percentage of total 99m-Tc in mice, Spleen ([2]; 2.0 hr): 0.3 Percentage of total 99m-Tc | Percentage of total 99m-Tc in mice, Spleen ([2]; 4.0 hr): 0.1 Percentage of total 99m-Tc | Percentage of total 99m-Tc in mice, Spleen ([2]; 24.0 hr): 0.1 Percentage of total 99m-Tc | Percentage of total 99m-Tc in mice, Stomach ([2]; 0 hr): 1.8 Percentage of total 99m-Tc | Percentage of total 99m-Tc in mice, Stomach ([2]; 0.5 hr): 1.1 Percentage of total 99m-Tc | Percentage of total 99m-Tc in mice, Stomach ([2]; 1.0 hr): 1.2 Percentage of total 99m-Tc | Percentage of total 99m-Tc in mice, Stomach ([2]; 2.0 hr): 0.5 Percentage of total 99m-Tc | Percentage of total 99m-Tc in mice, Stomach ([2]; 4.0 hr): 0.4 Percentage of total 99m-Tc | Percentage of total 99m-Tc in mice, Stomach ([2]; 24.0 hr): 0.4 Percentage of total 99m-Tc | accumulation of activity in the animal's kidneys ([2]; mice, immediately after injection to 24 hour): begins to accumulate in the animal's kidneys immediately after injection of the Tc-DMSA complex and continues to concentrate during a 24 hour period | kidney images [3]: Good kidney images

clearance from kidney tissue [4]: rapidly cleared from kidney tissue
Compound: Technetium-mercaptosuccinic Acid [^99m Tc-mercapto succinic acid]

Compound: technetium-mercaptoacetic acid
technetium activity found in urine [5]: A large part of the remaining activity | technetium activity localized in kidneys [5]: about 24%

Partition Coefficient - Ln(aw/ao) ([1]; pH 4): 2.4 | Partition Coefficient - Ln(aw/ao) ([1]; pH 5): 2.7 | Partition Coefficient - Ln(aw/ao) ([1]; pH 6): 3.1 | Partition Coefficient - Ln(aw/ao) ([1]; pH 7): 3.6 | Partition Coefficient - Ln(aw/ao) ([1]; pH 8): 4.1 | Partition Coefficient - Ln(aw/ao) ([1]; pH 9): 4.7
Compound: Technetium-3-mercaptopropanoic Acid

maximum kidney concentration of Tc-99m pertechnetate [6]: ≤ 3%
Compound: [O]=[99Tc](=[O])(=[O])[O-] [Tc-99m pertechnetate]

Compound: 99m-Tc-thioglucose
Percentage of total 99m-Tc in mice, Carcass ([2]; 0 hr): 53.1 Percentage of total 99m-Tc | Percentage of total 99m-Tc in mice, Carcass ([2]; 0.5 hr): 1.5 Percentage of total 99m-Tc | Percentage of total 99m-Tc in mice, Carcass ([2]; 1.0 hr): 1.4 Percentage of total 99m-Tc | Percentage of total 99m-Tc in mice, Gut ([2]; 0 hr): 13.3 Percentage of total 99m-Tc | Percentage of total 99m-Tc in mice, Gut ([2]; 0.5 hr): 5.5 Percentage of total 99m-Tc | Percentage of total 99m-Tc in mice, Gut ([2]; 1.0 hr): 1.1 Percentage of total 99m-Tc | Percentage of total 99m-Tc in mice, Kidneys ([2]; 0 hr): 9.0 Percentage of total 99m-Tc | Percentage of total 99m-Tc in mice, Kidneys ([2]; 0.5 hr): 2.8 Percentage of total 99m-Tc | Percentage of total 99m-Tc in mice, Kidneys ([2]; 1.0 hr): 0.4 Percentage of total 99m-Tc | Percentage of total 99m-Tc in mice, Liver ([2]; 0 hr): 18.9 Percentage of total 99m-Tc | Percentage of total 99m-Tc in mice, Liver ([2]; 0.5 hr): 2.1 Percentage of total 99m-Tc | Percentage of total 99m-Tc in mice, Liver ([2]; 1.0 hr): 3.3 Percentage of total 99m-Tc | Percentage of total 99m-Tc in mice, Lungs ([2]; 0 hr): 2.9 Percentage of total 99m-Tc | Percentage of total 99m-Tc in mice, Lungs ([2]; 0.5 hr): 0.3 Percentage of total 99m-Tc | Percentage of total 99m-Tc in mice, Lungs ([2]; 1.0 hr): 0.08 Percentage of total 99m-Tc | Percentage of total 99m-Tc in mice, Spleen & Pancreas ([2]; 0 hr): 2.1 Percentage of total 99m-Tc | Percentage of total 99m-Tc in mice, Spleen & Pancreas ([2]; 0.5 hr): 0.1 Percentage of total 99m-Tc | Percentage of total 99m-Tc in mice, Spleen & Pancreas ([2]; 1 hr): 0.2 Percentage of total 99m-Tc | Percentage of total 99m-Tc in mice, Stomach ([2]; 0 hr): 0.8 Percentage of total 99m-Tc | Percentage of total 99m-Tc in mice, Stomach ([2]; 0.5 hr): 0.8 Percentage of total 99m-Tc | Percentage of total 99m-Tc in mice, Stomach ([2]; 1.0 hr): 0.06 Percentage of total 99m-Tc | Percentage of total 99m-Tc in mice, Urine ([2]; 0 hr): 0.0 Percentage of total 99m-Tc | Percentage of total 99m-Tc in mice, Urine ([2]; 0.5 hr): 89.9 Percentage of total 99m-Tc | Percentage of total 99m-Tc in mice, Urine ([2]; 1 hr): 93.5 Percentage of total 99m-Tc | elimination from the kidneys ([2]; mice, 0-1 hr): eliminated from the kidneys of the mice very rapidly | clearance from kidney tissue [4]: rapidly cleared from kidney tissue
